Legend:
[1] = molecular target: T1, human progesterone receptor-A [PRA] isoform (Homo sapiens, UniProt P06401); experiment: Radioligand binding with human progesterone receptor cytosol ([3H]-progesterone competition); conditions: PRA cytosol expressed in insect SF21 cells, [3H]Prog ~0.8 nM, 4° C. overnight; Ki by Cheng-Prusoff, KL ~4.5 nM; read-out: Ki (nM) PR
T1 construct: host or cells: insect SF21 cells (baculovirus)
T1 sequence (P06401 1-769 isoform P06401-2): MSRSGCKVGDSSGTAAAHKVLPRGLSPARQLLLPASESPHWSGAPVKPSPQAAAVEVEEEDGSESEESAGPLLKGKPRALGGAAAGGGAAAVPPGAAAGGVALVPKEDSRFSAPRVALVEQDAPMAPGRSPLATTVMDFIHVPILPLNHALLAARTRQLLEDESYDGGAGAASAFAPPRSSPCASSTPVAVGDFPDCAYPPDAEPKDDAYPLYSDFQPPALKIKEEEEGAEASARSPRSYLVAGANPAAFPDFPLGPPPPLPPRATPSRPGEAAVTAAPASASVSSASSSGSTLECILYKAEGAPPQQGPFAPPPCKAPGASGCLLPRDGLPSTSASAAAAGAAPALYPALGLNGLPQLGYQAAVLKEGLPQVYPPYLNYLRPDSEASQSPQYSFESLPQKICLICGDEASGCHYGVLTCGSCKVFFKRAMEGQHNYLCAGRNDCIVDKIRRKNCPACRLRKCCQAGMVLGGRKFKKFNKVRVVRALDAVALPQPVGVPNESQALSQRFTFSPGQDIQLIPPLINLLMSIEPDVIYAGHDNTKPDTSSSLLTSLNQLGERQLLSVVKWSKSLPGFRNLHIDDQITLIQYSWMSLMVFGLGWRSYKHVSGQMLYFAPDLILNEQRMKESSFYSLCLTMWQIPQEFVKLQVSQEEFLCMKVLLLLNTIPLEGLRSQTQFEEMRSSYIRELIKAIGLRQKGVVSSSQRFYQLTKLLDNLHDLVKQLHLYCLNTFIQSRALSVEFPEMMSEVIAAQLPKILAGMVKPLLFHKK

[2] = molecular target: T2, human glucocorticoid receptor-α [GRX] isoform (Homo sapiens, UniProt P04150); experiment: Radioligand binding with human glucocorticoid receptor cytosol ([3H]-dexamethasone competition); conditions: GRX cytosol expressed in insect SF21 cells, [3H]-Dex ~0.9 nM, 4° C. overnight; Ki by Cheng-Prusoff, KL ~[…]; read-out: Ki (nM) GR
T2 construct: host or cells: insect SF21 cells (baculovirus)
T2 sequence (P04150 1-777): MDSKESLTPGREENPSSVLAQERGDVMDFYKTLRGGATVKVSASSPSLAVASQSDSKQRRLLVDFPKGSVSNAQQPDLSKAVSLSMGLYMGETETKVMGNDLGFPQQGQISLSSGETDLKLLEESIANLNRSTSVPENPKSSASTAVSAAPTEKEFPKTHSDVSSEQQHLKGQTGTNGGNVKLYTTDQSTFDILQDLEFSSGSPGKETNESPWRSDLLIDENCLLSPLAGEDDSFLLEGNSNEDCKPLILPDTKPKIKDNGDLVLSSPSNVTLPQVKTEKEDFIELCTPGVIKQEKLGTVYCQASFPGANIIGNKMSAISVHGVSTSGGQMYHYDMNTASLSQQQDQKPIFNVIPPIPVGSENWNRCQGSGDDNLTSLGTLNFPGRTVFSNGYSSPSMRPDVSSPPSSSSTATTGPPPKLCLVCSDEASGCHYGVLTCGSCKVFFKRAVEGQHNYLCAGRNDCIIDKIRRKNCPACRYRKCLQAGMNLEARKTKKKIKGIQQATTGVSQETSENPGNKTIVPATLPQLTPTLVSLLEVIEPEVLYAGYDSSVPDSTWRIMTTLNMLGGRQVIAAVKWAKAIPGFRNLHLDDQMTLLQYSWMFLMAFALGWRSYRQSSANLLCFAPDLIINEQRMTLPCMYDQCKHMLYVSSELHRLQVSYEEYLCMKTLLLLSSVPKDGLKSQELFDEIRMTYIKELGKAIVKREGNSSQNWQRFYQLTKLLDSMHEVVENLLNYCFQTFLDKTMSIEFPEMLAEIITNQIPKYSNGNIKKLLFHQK

Structure (SMILES)	Ki [1] [nM]	Ki [2] [nM]
C=CCC1Oc2ccc(Cl)c(C=C)c2-c2ccc3c(c21)C(C)=CC(C)(C)N3 (stereo not drawn) [Example 228, 5-(3-Propenyl)-9-chloro-10-ethenyl-2,2,4-trimethyl-2,5-dihydro-1H-[1]benzopyrano[3,4-f]quinoline]	29.5	5.4
COc1c(Cl)ccc2c1-c1ccc3c(c1C(c1ccccc1)O2)C(C)=CC(C)(C)N3 (stereo not drawn) [Example 229, 9-Chloro-10-methoxy-5-phenyl-2,2,4-trimethyl-2,5-dihydro-1H[1]benzopyrano[3,4-f]quinoline]	1340	34.7
C=CCC1Oc2ccc(Cl)c(OC(F)F)c2-c2ccc3c(c21)C(C)=CC(C)(C)N3 (stereo not drawn) [Example 230, 5-(3-Propenyl)-9-chloro-10-difluoromethoxy-2,2,4-trimethyl-2,5-dihydro-1H-[1]benzopyrano[3,4-f]quinoline]	50.3	2.4
CC1=CC(C)(C)Nc2ccc3c(c21)C(c1ccccc1)Oc1ccc(Cl)c(OC(F)F)c1-3 (stereo not drawn) [Example 231, 9-Chloro-10-difluoromethoxy-5-phenyl-2,2,4-trimethyl-2,5-dihydro-1H-[1]benzopyrano[3 4-f]quinoline]	1870	30.2
COc1cc(F)cc2c1-c1ccc3c(c1C(c1ccccc1)O2)C(C)=CC(C)(C)N3 (stereo not drawn) [Example 232, 8-Fluoro-10-methoxy-5-phenyl-2,2,4-trimethyl-2,5-dihydro-1H-[1]benzopyrano[3,4-f]quinoline]	230	1.6
C=CCC1Oc2cc(F)cc(OC)c2-c2ccc3c(c21)C(C)=CC(C)(C)N3 (stereo not drawn) [Example 233, 5-(3-Propenyl)-8-fluoro-10-methoxy-2,2,4-trimethyl-2,5-dihydro-1H-[1]benzopyrano[3,4-f]quinoline]	350	2.5
C=CCC1Oc2ccc(O)c(OC)c2-c2ccc3c(c21)C(C)=CC(C)(C)N3 (stereo not drawn) [Example 235, 10-Methoxy-9-hydroxy-5-(3-propenyl)-2,2,4-trimethyl-1H-2,5-dihydro-[1]benzopyrano[3,4-f]quinoline]	155	0.94
COc1c(O)ccc2c1-c1ccc3c(c1[C@@H]([C@@H]1C=C(C)CCC1)O2)C(C)=CC(C)(C)N3 [Example 240, (+)(5R,3′S)-9-Hydroxy-5-[1-methyl-3-cyclohexenyl]-10-methoxy-2,2,4-trimethyl-2,5-dihydro-1H-[1]benzopyrano[3,4-f]quinoline]	2170	52.2
COc1c(O)ccc2c1-c1ccc3c(c1[C@H]([C@@H]1C=CCCCC1)O2)C(C)=CC(C)(C)N3 [Example 246, (−)(5S,3′S)2,5-Dihydro-9-hydroxy-10-methoxy-2,2,4-trimethyl-5-(3-cycloheptenyl)-1H-[1]benzopyrano[3,4-f]quinoline]	113	0.87
COc1c(O)ccc2c1-c1ccc3c(c1[C@H]([C@H]1C=CCCCC1)O2)C(C)=CC(C)(C)N3 [Example 247, (−)(5S,3′R)2,5-Dihydro-9-hydroxy-10-methoxy-2,2,4-trimethyl-5-(3-cycloheptenyl)-1H-[1]benzopyrano[3,4-f]quinoline]	195	0.86
COc1c(O)ccc2c1-c1ccc3c(c1C(c1ccccc1)O2)C(C)=CC(C)(C)N3 (stereo not drawn) [Example 248, 2,5-Dihydro-9-hydroxy-10-methoxy-2,2,4-trimethyl-5-phenyl-1H-[1]benzopyrano[3,4-f]quinoline]	870	1
COc1c(O)ccc2c1-c1ccc3c(c1C(c1cc(F)cc(F)c1)O2)C(C)=CC(C)(C)N3 (stereo not drawn) [Example 249, 2,5-Dihydro-9-hydroxy-10-methoxy-2,2,4-trimethyl-5-(3,5-difluorophenyl)-1H-[1]benzopyrano[3,4-f]quinoline]	488	0.8
COc1c(O)ccc2c1-c1ccc3c(c1C(c1cc(F)c(F)c(F)c1)O2)C(C)=CC(C)(C)N3 (stereo not drawn) [Example 250, 2,5-Dihydro-9-hydroxy-10-methoxy-2,2,4-trimethyl-5-(3,4,5-trifluorophenyl)-1H-[1]benzopyrano[3,4-f]quinoline]	1470	2.4
COc1c(O)ccc2c1-c1ccc3c(c1[C@H]([C@@H]1C=CCC1)O2)C(C)=CC(C)(C)N3 [Example 252]	102	0.39
COc1c(O)ccc2c1-c1ccc3c(c1[C@H]([C@H]1C=CCC1)O2)C(C)=CC(C)(C)N3 [Example 253, (−)(5S,3′R)2,5-Dihydro-9-hydroxy-10-methoxy-2,2,4-trimethyl-5-(3-cyclopentenyl)-1H-[1]benzopyrano[3,4-f]quinoline]	42	0.38
COc1c(O)ccc2c1-c1ccc3c(c1C(c1ccc(F)cc1)O2)C(C)=CC(C)(C)N3 (stereo not drawn) [Example 255, 2,5-Dihydro-9-hydroxy-10-methoxy-2,2,4-trimethyl-5-(4-fluorophenyl)-1H-[1]benzopyrano[3,4-f]quinoline]	1430	1.5
COc1c(O)ccc2c1-c1ccc3c(c1C(c1cccc(C(F)(F)F)c1)O2)C(C)=CC(C)(C)N3 (stereo not drawn) [Example 256, 2,5-Dihydro-9-hydroxy-10-methoxy-2,2,4-trimethyl-5-(3-trifluoromethylphenyl)-1H-[1]benzopyrano[3,4-f]quinoline]	266	3.8
COc1c(O)ccc2c1-c1ccc3c(c1C(c1cc(C(F)(F)F)cc(C(F)(F)F)c1)O2)C(C)=CC(C)(C)N3 (stereo not drawn) [Example 257, 2,5-Dihydro-9-hydroxy-10-methoxy-2,2,4-trimethyl-5-(3-5-bistrifluoromethylphenyl)-1H-[1]benzopyrano[3,4-f]quinoline]	1620	10
COc1c(O)ccc2c1-c1ccc3c(c1C(c1ccc(Cl)c(C(F)(F)F)c1)O2)C(C)=CC(C)(C)N3 (stereo not drawn) [Example 258, 2,5-Dihydro-9-hydroxy-10-methoxy-2,2,4-trimethyl-5-(3-trifluoromethyl-4-chlorophenyl)-1H-[1]benzopyrano[3,4-f]quinoline]	879	10.7
COc1c(O)ccc2c1-c1ccc3c(c1C(CC(C)C)O2)C(C)=CC(C)(C)N3 (stereo not drawn) [Example 259, 2,5-Dihydro-9-hydroxy-10-methoxy-2,2,4-trimethyl-5-(2-methylpropyl)-1H-[1]benzopyrano[3,4-f]quinoline]	938	1.2
C=CCCC1Oc2ccc(O)c(OC)c2-c2ccc3c(c21)C(C)=CC(C)(C)N3 (stereo not drawn) [Example 261, 2,5-Dihydro-9-hydroxy-10-methoxy-2,2,4-trimethyl-5-(3-butenyl)-1H-[1]benzopyrano[3,4-f]quinoline]	161	0.75
COc1c(O)ccc2c1-c1ccc3c(c1C(Cc1ccccc1)O2)C(C)=CC(C)(C)N3 (stereo not drawn) [Example 262, 2,5-Dihydro-9-hydroxy-10-methoxy-5-(phenylmethyl)-2,2,4-trimethyl-1H-[1]benzopyrano[3,4-f]quinoline]	150	1.1
COc1c(O)ccc2c1-c1ccc3c(c1[C@H](C1CCCC1)O2)C(C)=CC(C)(C)N3 [Example 264, (−)(S)5-Cyclopentyl-2,5-dihydro-9-hydroxy-10-methoxy-2,2,4-trimethyl-1H-[1]benzopyrano[3,4-f]quinoline]	307	0.51
C#CCC1Oc2ccc(O)c(OC)c2-c2ccc3c(c21)C(C)=CC(C)(C)N3 (stereo not drawn) [Example 266, 2,5-Dihydro-9-hydroxy-10-methoxy-5-(3-propynyl)-2,2,4-trimethyl-1H-[1]benzopyrano[3,4-f]quinoline]	102	0.71

From patent US6506766B1 (Abbott Laboratories, priority 1998, dated 2003)
